Source: patent US9464280B1, “Beta-lactamases with improved properties for therapy” (priority 2014, dated 2016)
Converted amounts (≈) assume the structure as drawn. Like-named read-outs stand apart in the source and are kept apart here.

Experiments:
[1] = system: Escherichia coli ATCC 25922; assay: Microbroth dilution: EC50 of ampicillin and ceftriaxone in absence and presence of P1A; format: cell-based; conditions: absence of P1A; ceftriaxone 0.13 to 128 μg/mL
[2] = system: Escherichia coli ATCC 25922; assay: as above; format: cell-based; conditions: for EC50: Escherichia coli, ATCC25922, P1A 0, read-out: Ceftriaxone EC50
Experimental: (§1) Escherichia coli strain 25922 was cultured from glycerol stocks to logarithmic growth in cation adjusted Mueller-Hinton broth at 37° C. in an atmospheric environment and diluted in cation adjusted Mueller-Hinton broth to achieve a starting in well concentration of 5×10^5 CFU/mL. Serial 2-fold dilution of antimicrobial compounds were prepared in cation adjusted Mueller-Hinton broth to achieve final in well concentration of 128 μg/mL to 0.13 μg/mL for ampicillin and 4 μg/mL 4 ng/mL in the absence or presence of serial 10-fold dilutions of P1A, P3A, or P4A β-lactamase standard, 5 pg/mL to 50 ng/mL for ampicillin and […] to 500 ng/mL for ceftriaxone, ceftazidime, meropenem, cefepime, cefazolin, amp/sulbactam, cefoperazone, cefotaxime, and cefuroxime. Antibiotics were either added to the P1A and incubated for 30 min at 37° C. (pre-incubation) prior to addition of bacteria, or added to the plates following the addition of P1A, P3A, P4A, and bacteria (simultaneous). All concentrations and combinations were evaluated in triplicate in a 96-well plate format that contained media only, compound plus media only (colorimetric control), and untreated bacterial controls.
The 50% effective inhibitory concentration (EC50) of ampicillin and ceftriaxone against Escherichia coli was determined in the absence and presence of P1A β-lactamase. For the purposes of these studies, the stated effective concentration was the initial concentration of ampicillin or ceftriaxone added at the beginning of the experiment, and not a concentration measured during the course of the experiment or at the end of the incubation period.
Antibiotics were either added to the P1A and incubated for 30 min at 37° C. (Pre-incubation) prior to addition of bacteria, or added to the plates following the addition of P1A and bacteria (Simultaneous). All concentrations and combinations were evaluated in triplicate in a 96-well plate format. Following overnight incubation, the 0D625 of the plates was measured in a Spectramax 384 plate reader and the data were imported into a customized Excel spreadsheet for the determination of the 50% effective inhibitory concentration at (EC50) by linear regression analysis. For the purposes of these studies, the stated effective concentration is the initial concentration of ampicillin or ceftriaxone added at the beginning of the experiment, and not a concentration measured during the course of the experiment or at the end of the incubation period.
Antibiotics were either added to the P1A and incubated for 30 min at 37° C. (Pre-incubation) prior to addition of bacteria, or added to the plates following the addition of P1A and bacteria (Simultaneous). All concentrations and combinations were evaluated in triplicate in a 96-well plate format. Following overnight incubation, the OD625 of the plates was measured in a Spectramax 384 plate reader and the data were imported into a customized Excel spreadsheet for the determination of the 50% effective inhibitory concentration (EC50).
Antibiotics were added to the P1A bacteria (Simultaneous). All concentrations and combinations were evaluated in triplicate in a 96-well plate format. Following overnight incubation, the OD625 of the plates was measured in a Spectramax 384 plate reader and the data were imported into a customized Excel spreadsheet for the determination of the 50% effective inhibitory concentration at (EC50) by linear regression analysis.

[3] = system: Escherichia coli ATCC 25922; assay: microbe, parasite or virus in culture; format: cell-based
Experimental: as §1
Next, the 90% effective inhibitory concentration (EC90) of ampicillin, ceftriaxone, ceftazidime, meropenem, cefepime, cefazolin, amp/sulbactam, cefoperazone, cefotaxime, and cefuroxime against Escherichia coli was determined in the absence and presence of P1A, P3A, or P4A β-lactamase. For the purposes of these studies, the stated effective concentration was the initial concentration of ampicillin, ceftriaxone, ceftazidime, meropenem, cefepime, cefazolin, amp/sulbactam, cefoperazone, cefotaxime, and cefuroxime added at the beginning of the experiment, and not a concentration measured during the course of the experiment or at the end of the incubation period.
Specifically, the assay was performed by diluting (2-fold steps) the chosen antibiotic across the rows of a 96 well dish. The MIC was determined as the point at which the diluted antibiotic transitions from killing to not killing the bacteria (in this case, an E. coli strain that is sensitive to all antibiotics). P1A, P3A, and P4A were diluted (10 fold steps) down the columns (the β-lactamase concentrations increased down the columns). […] The latter point was used as the cut-off point. […] However, for this assay, the absolute MIC is not the most important parameter. The most relevant readout was the β-lactamase concentration at which the apparent MIC increases to the maximum amount of antibiotic tested.
(§2) E coli 29522 was incubated overnight in the presence of serial dilutions of antibiotic and the indicated amounts of β-lactamase protein from cell culture supernatants in a 96 well plate. Bacterial density (OD625) of the cultures was measured and the concentration at which the density was reduced by 90% relative to an untreated bacterial control (EC90) was determined. The assay was performed on two separate days and the data reported as Rep1 and Rep2. NA=not assayed.
as §2, with “determined.” for “determined. The assay was performed on two separate days and the data reported as Rep1 and Rep2. NA=not assayed.”

[4] = system: Escherichia coli ATCC 25922; assay: microbe, parasite or virus in culture; format: cell-based; conditions: for EC50 / EC90: Escherichia coli, ATCC25922, no enzyme; for EC90: Table 17, read-out: Ceftriaxone EC90
[5] = Preliminary enzymatic activity of P1A mutants from B. subtilis supernatants; format: biochemical; conditions: B. subtilis supernatant, one substrate concentration
Experimental: (§3) β-lactamase activity of the mutants was further characterised from E. coli cell lysates and B. subtilis growth supernatant with ampicillin, cefotaxime, ceftriaxone, cefuroxime, ceftazidime, meropenem and imipenem. The activities were determined using only one substrate concentration of each antibiotic tested. Selection of the antibiotic concentration was done with the antibiotic concentration as high as was practical, [S]>>Km. Based on these preliminary experiments, more accurate kinetic parameters were determined for a couple of mutants from both the site-directed and the random mutagenesis research lines. All the mutant enzymes selected for more detailed study were expressed in the B. subtilis host strain RS303. The cells carrying the mutated proteins were grown in minimal medium over-night after which the cells were harvested and the supernatant was concentrated in 1:10 with Amicon Ultra-4 centrifugal devices, MWCO 10000 (Amicon). Protein concentration in each culture supernatant was estimated from 12% SDS-PAGE (Criterion XT Bis-Tris, BioRad, Calif., USA) using the P1A reference material A18K31 as a standard. Kinetic parameters were measured for cefotaxime, ceftriaxone and cefuroxime for each selected mutant strain. The site-directed mutants were designed to hydrolyze cefotaxime and random mutants were screened with ceftriaxone, which made these antibiotics natural choices for determining kinetic parameters.

E. coli (ATCC 25922) = assay: Microtiter plate antibiotic degradation activity assay; format: cell-based; conditions: enzyme 10 or 100 ng/ml; antibiotic 10, 100 or 1000 μg/ml; FIG. 8
Experimental: P1A and P4A were screened for degradation of ampicillin, ceftriazone, cefotaxime, cefozolin, cefuroxime, cefoperazone, cefepime, and ceftazidime in a microtiter plate activity assay that was designed to mimic the activity of the beta-lactamases in the gut in the presence of high antibiotic concentrations. The assay was performed by mixing 10, 100 or 1000 μg/ml of the indicated antibiotics with P1A or P4A, at concentrations of 10 or 100 ng/ml. Plates were either incubated for one hour at 37° C. after which E. coli (ATCC 25922) was added, or E. coli was added immediately after the addition of the beta-lactamase enzymes. The plates were incubated overnight and the bacterial growth quantified by measuring the absorbance at 625 nm (OD625) in a Spectramax 384 Plus plate reader. The analysis was performed twice for each beta-lactamase and antibiotic. The beta-lactamase activity of the culture supernatants was determined as positive or negative based on the appearance of bacterial growth in the individual wells. An OD625 of 1.0 or greater indicated maximal bacterial growth, therefore complete antibiotic degradation and high beta-lactamase activity.

[6] = cited from earlier work
[7] = Kinetic parameters of P1A mutant strains; format: biochemical
Experimental: as §3

[8] = concentrated B. subtilis supernatant
[9] = relative values of P1A activities

Molecule: CO/N=C(\C(=O)N[C@@H]1C(=O)N2C(C(=O)O)=C(CSc3nc(=O)c(=O)[nH]n3C)CS[C@H]12)c1csc(N)n1 [Ceftriaxone]
- ceftriaxone EC99 [1]: < 0.13 µg/mL
- EC50 ([2]; pre-incubation, Table 12): < 0.13 µg/mL
- EC50 ([2]; pre-incubation, Table 13): 0.03 µg/mL
- EC50 ([2]; simultaneous, Table 12): < 0.13 µg/mL
- EC50 ([2]; simultaneous, Table 13): 0.02 µg/mL
- EC50 ([2]; simultaneous, Table 14 repeat analysis): 0.03 µg/mL
- Ceftriaxone EC90 ([3]; no enzyme, 2nd value, high test 1 μg/mL, Table 17): 0.06 µg/mL
- EC50 ([4]; 1st value, high test 1 μg/mL, Table 16, read-out: Ceftriazone EC50): 0.06 µg/mL (≈ 0.108 µM)
- EC90 ([4]; 1st value, high test 1 μg/mL): 0.03 µg/mL (≈ 0.0541 µM)
- EC50 ([4]; 2nd value, high test 1 μg/mL, Table 16, read-out: Ceftriazone EC50): 0.06 µg/mL (≈ 0.108 µM)
- EC90 ([4]; 2nd value, high test 1 μg/mL): 0.03 µg/mL (≈ 0.0541 µM)
- EC50 ([4]; Rep 2, Table 15, read-out: Ceftriaxone EC50): 0.02 µg/mL (≈ 0.0361 µM)
- Ceftriaxone EC50 ([4]; no enzyme, Rep 1, Table 15): 0.008 µg/mL

Molecule: P1A: Wild type; recombinant Bacillus licheniformis 749/C small exo beta-lactamase (PenP), SEQ ID NO: 1
- AMP = ampicillin enzymatic activity [5]: 1.00 multiples of P1A
- CAZ = ceftazidime enzymatic activity [5]: 1.00 multiples of P1A
- CRO = ceftriaxone enzymatic activity [5]: 1.00 multiples of P1A
- CTX = cefotaxime enzymatic activity [5]: 1.00 multiples of P1A
- CXM = cefuroxime enzymatic activity [5]: 1.00 multiples of P1A
- activity for ceftriaxone, cefotaxime, and ceftazidime (E. coli (ATCC 25922)): no activity
- more active against ampicillin than ceftriaxone ([2]; microbiological assay): 1,000 fold
- inhibition by sulbactam ([3]; amp/sulbactam data): effectively inhibited
- efficacy in humans with piperacillin/tazobactam [6]: efficacious
- Cefotaxime Vmax [7, 8]: 1.18 nmol/s
- Cefotaxime kcat [7, 8]: 16 s⁻¹
- Ceftriaxone Vmax [7, 8]: 2.81 nmol/s
- Ceftriaxone kcat [7, 8]: 25 s⁻¹
- Cefuroxime Vmax [7, 8]: 1.25 nmol/s
- Cefuroxime kcat [7, 8]: 23 s⁻¹
- Cefotaxime Vmax [7, 9]: 1.00
- Cefotaxime kcat [7, 9]: 1 s⁻¹
- Ceftriaxone Vmax [7, 9]: 1.00
- Ceftriaxone kcat [7, 9]: 1 s⁻¹
- Cefuroxime Vmax [7, 9]: 1.00
- Cefuroxime kcat [7, 9]: 1 s⁻¹
